Assay results taken from ChEMBL document CHEMBL4507310, “Data for DCP probe A-1211212” (2021).

What was measured:
[1] = system: Receptor-type tyrosine-protein kinase FLT3 (Homo sapiens), P36888 [UNDEFINED MUTATION]; conditions: Compound concentration 1000.0 nM
[2] = target: cAMP-dependent protein kinase catalytic subunit beta (Homo sapiens) (UniProt P22694); conditions: Compound concentration 1000.0 nM
[3] = target: Cyclin-dependent kinase 7 (Homo sapiens) (UniProt P50613); conditions: Compound concentration 1000.0 nM
[4] = target: Casein kinase II subunit alpha' (Homo sapiens) (UniProt P19784); conditions: Compound concentration 1000.0 nM
[5] = target: Dual serine/threonine and tyrosine protein kinase (Homo sapiens) (UniProt Q6XUX3); conditions: Compound concentration 1000.0 nM
[6] = target: Phosphatidylinositol 3-kinase catalytic subunit type 3 (Homo sapiens) (UniProt Q8NEB9); conditions: Compound concentration 1000.0 nM
[7] = target: Ribosomal protein S6 kinase alpha-6 (Homo sapiens) (UniProt Q9UK32); conditions: Compound concentration 1000.0 nM
[8] = target: Ribosomal protein S6 kinase alpha-3 (Homo sapiens) (UniProt P51812); conditions: Compound concentration 1000.0 nM
[9] = system: Receptor-type tyrosine-protein kinase FLT3 (Homo sapiens), P36888 [UNDEFINED MUTATION]; conditions: Compound concentration 1000.0 nM; remark: listed apart in the source
[10] = system: Epidermal growth factor receptor (Homo sapiens), P00533 [UNDEFINED MUTATION]; conditions: Compound concentration 1000.0 nM
[11] = target: Inhibitor of nuclear factor kappa-B kinase subunit epsilon (Homo sapiens) (UniProt Q14164); conditions: Compound concentration 1000.0 nM
[12] = target: Insulin-like growth factor 1 receptor (Homo sapiens) (UniProt P08069); conditions: Compound concentration 1000.0 nM
[13] = target: Ephrin type-A receptor 6 (Homo sapiens) (UniProt Q9UF33); conditions: Compound concentration 1000.0 nM
[14] = system: Epidermal growth factor receptor (Homo sapiens), P00533 [G719S]; conditions: Compound concentration 1000.0 nM
[15] = target: Tyrosine-protein kinase Fgr (Homo sapiens) (UniProt P09769); conditions: Compound concentration 1000.0 nM
[16] = target: Cyclin-dependent kinase 17 (Homo sapiens) (UniProt Q00537); conditions: Compound concentration 1000.0 nM
[17] = system: Phosphatidylinositol 4,5-bisphosphate 3-kinase catalytic subunit alpha isoform (Homo sapiens), P42336 [E545A]; conditions: Compound concentration 1000.0 nM
[18] = target: Serine/threonine-protein kinase PLK1 (Homo sapiens) (UniProt P53350); conditions: Compound concentration 1000.0 nM
[19] = target: Endothelin-1 receptor (Homo sapiens) (UniProt P25101); experiment: ETA (h) Eurofins-Cerep binding assay; set-up: ligand concentration 0.03 nM; conditions: filed as agonist, Compound concentration 10.0 uM
[20] = target: MAP kinase-activated protein kinase 2 (Homo sapiens) (UniProt P49137); conditions: Compound concentration 1000.0 nM
[21] = target: Serine/threonine-protein kinase Nek6 (Homo sapiens) (UniProt Q9HC98); conditions: Compound concentration 1000.0 nM
[22] = target: Glycogen synthase kinase-3 beta (Homo sapiens) (UniProt P49841); conditions: Compound concentration 1000.0 nM
[23] = target: Cyclin-dependent kinase 11A (Homo sapiens) (UniProt Q9UQ88); conditions: Compound concentration 1000.0 nM
[24] = target: Prostaglandin G/H synthase 1 (Homo sapiens) (UniProt P23219); experiment: COX1(h) Eurofins-Cerep enzyme and uptake assay; conditions: Compound concentration 10.0 uM
[25] = target: Serine/threonine-protein kinase PAK 2 (Homo sapiens) (UniProt Q13177); conditions: Compound concentration 1000.0 nM
[26] = target: Aurora kinase C (Homo sapiens) (UniProt Q9UQB9); conditions: Compound concentration 1000.0 nM
[27] = target: Fibroblast growth factor receptor 1 (Homo sapiens) (UniProt P11362); conditions: Compound concentration 1000.0 nM
[28] = target: D(2) dopamine receptor (Homo sapiens) (UniProt P14416); experiment: D2S (h) Eurofins-Cerep binding assay; set-up: ligand concentration 0.3 nM; conditions: filed as antagonist, Compound concentration 10.0 uM
[29] = target: Serine/threonine-protein kinase 17A (Homo sapiens) (UniProt Q9UEE5); conditions: Compound concentration 1000.0 nM
[30] = target: Protein kinase C epsilon type (Homo sapiens) (UniProt Q02156); conditions: Compound concentration 1000.0 nM
[31] = target: T1, Alpha-2A adrenergic receptor (Homo sapiens) (UniProt P08913); conditions: Compound concentration 10.0 uM
T1 sequence (whole entry): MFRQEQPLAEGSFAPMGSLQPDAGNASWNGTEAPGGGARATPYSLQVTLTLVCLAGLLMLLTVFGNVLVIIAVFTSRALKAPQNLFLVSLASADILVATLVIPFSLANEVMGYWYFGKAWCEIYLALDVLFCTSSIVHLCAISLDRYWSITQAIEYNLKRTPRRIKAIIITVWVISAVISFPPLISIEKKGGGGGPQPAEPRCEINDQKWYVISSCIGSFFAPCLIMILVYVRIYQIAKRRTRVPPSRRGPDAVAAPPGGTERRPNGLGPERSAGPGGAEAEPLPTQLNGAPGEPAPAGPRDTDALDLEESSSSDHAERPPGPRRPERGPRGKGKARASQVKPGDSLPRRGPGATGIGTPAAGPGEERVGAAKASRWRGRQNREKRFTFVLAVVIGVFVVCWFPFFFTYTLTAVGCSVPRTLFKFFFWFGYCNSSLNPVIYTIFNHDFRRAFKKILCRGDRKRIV

[32] = system: Mast/stem cell growth factor receptor Kit (Homo sapiens), P10721 [A829P]; conditions: Compound concentration 1000.0 nM
[33] = target: Kappa-type opioid receptor (Homo sapiens) (UniProt P41145); experiment: kappa (h) (KOP) Eurofins-Cerep binding assay; set-up: ligand concentration 0.5 nM; conditions: filed as agonist, Compound concentration 10.0 uM
[34] = target: Myosin light chain kinase (Homo sapiens) (UniProt Q32MK0); conditions: Compound concentration 1000.0 nM
[35] = target: Dual specificity protein kinase CLK2 (Homo sapiens) (UniProt P49760); conditions: Compound concentration 1000.0 nM
[36] = target: Serine/threonine-protein kinase 33 (Homo sapiens) (UniProt Q9BYT3); conditions: Compound concentration 1000.0 nM
[37] = target: Leukocyte tyrosine kinase receptor (Homo sapiens) (UniProt P29376); conditions: Compound concentration 1000.0 nM
[38] = target: Calcium-dependent protein kinase 1 (Plasmodium falciparum) (UniProt P62344); conditions: Compound concentration 1000.0 nM
[39] = target: Atypical kinase COQ8A, mitochondrial (Homo sapiens) (UniProt Q8NI60); conditions: Compound concentration 1000.0 nM

Receptor-type tyrosine-protein kinase FLT3 (Homo sapiens), P36888 [UNDEFINED MUTATION], sequence (P36888 whole entry, looked up, change not shown): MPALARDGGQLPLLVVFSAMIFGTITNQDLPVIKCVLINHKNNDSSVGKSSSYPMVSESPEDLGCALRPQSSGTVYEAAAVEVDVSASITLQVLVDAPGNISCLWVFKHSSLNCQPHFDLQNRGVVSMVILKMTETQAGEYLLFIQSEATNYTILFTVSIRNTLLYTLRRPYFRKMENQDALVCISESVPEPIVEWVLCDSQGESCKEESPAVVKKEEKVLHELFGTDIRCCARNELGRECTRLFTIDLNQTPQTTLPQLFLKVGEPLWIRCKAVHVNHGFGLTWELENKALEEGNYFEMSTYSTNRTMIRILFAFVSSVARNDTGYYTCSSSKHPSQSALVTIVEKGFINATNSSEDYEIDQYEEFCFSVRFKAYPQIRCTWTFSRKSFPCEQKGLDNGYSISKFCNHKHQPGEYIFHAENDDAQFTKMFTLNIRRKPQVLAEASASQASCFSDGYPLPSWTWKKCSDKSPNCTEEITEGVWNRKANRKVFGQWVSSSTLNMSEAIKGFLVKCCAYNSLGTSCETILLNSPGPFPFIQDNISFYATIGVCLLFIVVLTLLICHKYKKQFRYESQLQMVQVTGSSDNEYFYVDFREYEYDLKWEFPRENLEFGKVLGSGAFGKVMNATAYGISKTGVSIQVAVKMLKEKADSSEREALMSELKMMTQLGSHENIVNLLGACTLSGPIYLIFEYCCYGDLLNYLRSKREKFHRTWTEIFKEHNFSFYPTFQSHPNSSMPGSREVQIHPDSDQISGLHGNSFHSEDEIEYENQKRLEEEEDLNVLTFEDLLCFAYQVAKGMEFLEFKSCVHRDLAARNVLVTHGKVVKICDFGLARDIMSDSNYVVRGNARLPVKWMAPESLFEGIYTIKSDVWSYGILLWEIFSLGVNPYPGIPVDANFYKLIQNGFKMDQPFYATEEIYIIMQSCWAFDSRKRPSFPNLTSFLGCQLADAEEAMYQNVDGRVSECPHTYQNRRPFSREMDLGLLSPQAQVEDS
Leukocyte tyrosine kinase receptor (Homo sapiens), sequence (P29376 whole entry): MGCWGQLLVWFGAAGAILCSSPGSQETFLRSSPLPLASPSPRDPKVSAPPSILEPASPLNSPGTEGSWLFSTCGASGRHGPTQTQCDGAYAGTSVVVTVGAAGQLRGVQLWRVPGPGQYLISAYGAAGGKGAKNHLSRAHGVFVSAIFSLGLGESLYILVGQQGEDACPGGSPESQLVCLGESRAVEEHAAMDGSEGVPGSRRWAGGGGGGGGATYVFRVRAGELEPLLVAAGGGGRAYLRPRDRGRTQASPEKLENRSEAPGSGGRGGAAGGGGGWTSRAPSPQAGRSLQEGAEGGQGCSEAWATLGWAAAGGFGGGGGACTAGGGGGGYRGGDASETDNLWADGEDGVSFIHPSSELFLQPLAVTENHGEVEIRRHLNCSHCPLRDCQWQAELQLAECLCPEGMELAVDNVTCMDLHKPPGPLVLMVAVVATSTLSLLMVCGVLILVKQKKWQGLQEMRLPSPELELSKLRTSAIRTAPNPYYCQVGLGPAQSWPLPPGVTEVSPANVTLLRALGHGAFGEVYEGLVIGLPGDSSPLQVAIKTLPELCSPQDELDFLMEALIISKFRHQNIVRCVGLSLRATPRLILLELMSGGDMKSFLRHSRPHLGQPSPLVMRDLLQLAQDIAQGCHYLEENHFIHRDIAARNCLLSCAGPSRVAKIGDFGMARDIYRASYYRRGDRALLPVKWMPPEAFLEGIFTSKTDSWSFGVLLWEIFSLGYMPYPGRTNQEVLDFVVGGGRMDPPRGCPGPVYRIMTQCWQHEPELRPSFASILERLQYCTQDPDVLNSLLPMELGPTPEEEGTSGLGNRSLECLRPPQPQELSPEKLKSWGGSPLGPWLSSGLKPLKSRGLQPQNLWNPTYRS
Casein kinase II subunit alpha' (Homo sapiens), sequence (P19784 whole entry, looked up): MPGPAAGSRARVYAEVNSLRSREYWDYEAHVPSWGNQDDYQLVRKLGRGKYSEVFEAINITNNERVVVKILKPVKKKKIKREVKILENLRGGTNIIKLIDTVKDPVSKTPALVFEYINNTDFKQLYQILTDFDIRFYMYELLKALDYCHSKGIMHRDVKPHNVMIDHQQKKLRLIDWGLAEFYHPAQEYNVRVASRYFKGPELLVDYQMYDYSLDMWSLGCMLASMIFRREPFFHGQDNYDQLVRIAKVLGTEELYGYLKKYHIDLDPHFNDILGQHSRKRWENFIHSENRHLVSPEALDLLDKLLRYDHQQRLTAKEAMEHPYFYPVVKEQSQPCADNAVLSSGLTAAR
Phosphatidylinositol 4,5-bisphosphate 3-kinase catalytic subunit alpha isoform (Homo sapiens), P42336 [E545A], sequence (P42336 whole entry E545A, canonical isoform): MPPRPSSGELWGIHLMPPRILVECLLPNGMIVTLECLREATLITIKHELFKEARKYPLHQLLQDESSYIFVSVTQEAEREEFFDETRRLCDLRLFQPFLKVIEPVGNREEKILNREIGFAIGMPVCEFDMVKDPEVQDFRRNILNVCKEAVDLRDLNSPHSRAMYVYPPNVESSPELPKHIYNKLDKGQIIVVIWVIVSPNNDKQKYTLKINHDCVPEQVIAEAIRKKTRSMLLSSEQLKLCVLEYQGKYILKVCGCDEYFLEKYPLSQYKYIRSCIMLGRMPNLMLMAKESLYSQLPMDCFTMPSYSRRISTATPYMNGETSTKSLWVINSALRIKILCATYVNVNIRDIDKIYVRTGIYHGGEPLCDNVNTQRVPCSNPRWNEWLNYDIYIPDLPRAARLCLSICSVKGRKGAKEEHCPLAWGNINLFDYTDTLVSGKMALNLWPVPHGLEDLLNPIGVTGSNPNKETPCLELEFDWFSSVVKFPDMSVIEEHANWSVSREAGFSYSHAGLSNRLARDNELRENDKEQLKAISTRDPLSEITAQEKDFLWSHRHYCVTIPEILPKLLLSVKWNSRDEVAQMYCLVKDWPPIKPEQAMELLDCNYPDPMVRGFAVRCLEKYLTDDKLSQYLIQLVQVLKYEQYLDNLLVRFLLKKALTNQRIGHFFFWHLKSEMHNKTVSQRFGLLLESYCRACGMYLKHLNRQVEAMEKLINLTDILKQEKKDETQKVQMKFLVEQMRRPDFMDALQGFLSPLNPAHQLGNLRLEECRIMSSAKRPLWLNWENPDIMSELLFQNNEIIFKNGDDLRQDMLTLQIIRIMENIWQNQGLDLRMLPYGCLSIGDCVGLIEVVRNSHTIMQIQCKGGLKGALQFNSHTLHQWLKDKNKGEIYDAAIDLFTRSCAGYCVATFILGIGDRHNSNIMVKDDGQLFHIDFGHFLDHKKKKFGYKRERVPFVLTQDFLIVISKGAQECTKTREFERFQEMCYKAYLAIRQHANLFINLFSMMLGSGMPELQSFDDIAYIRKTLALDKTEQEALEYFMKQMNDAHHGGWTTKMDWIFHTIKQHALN
D(2) dopamine receptor (Homo sapiens), sequence (P14416 whole entry): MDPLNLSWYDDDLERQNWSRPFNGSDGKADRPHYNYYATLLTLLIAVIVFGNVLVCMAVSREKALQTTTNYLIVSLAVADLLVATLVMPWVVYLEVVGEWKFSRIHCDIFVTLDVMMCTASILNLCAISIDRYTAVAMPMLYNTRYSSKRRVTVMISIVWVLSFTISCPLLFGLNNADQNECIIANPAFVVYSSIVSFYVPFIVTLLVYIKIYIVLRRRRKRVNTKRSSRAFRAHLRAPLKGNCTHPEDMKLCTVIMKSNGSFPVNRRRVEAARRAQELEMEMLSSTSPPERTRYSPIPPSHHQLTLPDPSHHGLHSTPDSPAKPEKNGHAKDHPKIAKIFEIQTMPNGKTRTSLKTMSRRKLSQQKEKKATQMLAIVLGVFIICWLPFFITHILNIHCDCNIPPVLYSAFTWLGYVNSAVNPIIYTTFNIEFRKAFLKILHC
Ribosomal protein S6 kinase alpha-3 (Homo sapiens), sequence (P51812 whole entry): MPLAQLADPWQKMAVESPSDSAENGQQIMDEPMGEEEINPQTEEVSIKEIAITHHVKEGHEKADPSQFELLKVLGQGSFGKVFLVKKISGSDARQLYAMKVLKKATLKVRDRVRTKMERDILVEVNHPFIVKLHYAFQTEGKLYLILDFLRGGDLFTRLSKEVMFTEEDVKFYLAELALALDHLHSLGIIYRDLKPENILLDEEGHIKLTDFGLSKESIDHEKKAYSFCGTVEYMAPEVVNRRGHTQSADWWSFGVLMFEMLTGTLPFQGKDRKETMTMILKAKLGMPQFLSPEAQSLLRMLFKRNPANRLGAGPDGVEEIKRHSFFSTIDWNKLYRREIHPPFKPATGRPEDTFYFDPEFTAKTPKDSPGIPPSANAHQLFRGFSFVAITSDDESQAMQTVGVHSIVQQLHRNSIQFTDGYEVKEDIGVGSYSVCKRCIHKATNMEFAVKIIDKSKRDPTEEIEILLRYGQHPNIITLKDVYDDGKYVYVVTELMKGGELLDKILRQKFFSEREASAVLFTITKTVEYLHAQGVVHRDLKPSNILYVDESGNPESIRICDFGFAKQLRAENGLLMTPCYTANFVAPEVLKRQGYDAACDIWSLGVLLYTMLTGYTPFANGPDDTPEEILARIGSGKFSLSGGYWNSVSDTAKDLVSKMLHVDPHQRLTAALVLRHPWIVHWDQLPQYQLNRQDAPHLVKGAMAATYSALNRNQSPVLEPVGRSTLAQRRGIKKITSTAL
Kappa-type opioid receptor (Homo sapiens), sequence (P41145 whole entry): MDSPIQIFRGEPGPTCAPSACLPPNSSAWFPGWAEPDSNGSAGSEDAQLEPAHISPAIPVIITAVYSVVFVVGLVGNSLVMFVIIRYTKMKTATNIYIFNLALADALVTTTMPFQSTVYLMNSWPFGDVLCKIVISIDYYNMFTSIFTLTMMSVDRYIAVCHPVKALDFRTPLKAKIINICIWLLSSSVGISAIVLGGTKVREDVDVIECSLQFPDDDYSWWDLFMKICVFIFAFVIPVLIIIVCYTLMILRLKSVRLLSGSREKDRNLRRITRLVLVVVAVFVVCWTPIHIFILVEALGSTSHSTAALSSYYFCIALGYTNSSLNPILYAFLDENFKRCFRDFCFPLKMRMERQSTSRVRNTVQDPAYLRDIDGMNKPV

Structure (SMILES) | residual activity [1] [%] | residual activity [2] [%] | residual activity [3] [%] | residual activity [4] [%] | residual activity [5] [%] | residual activity [6] [%] | residual activity [7] [%] | residual activity [8] [%] | residual activity [9] [%] | residual activity [10] [%] | residual activity [11] [%] | residual activity [12] [%] | residual activity [13] [%] | residual activity [14] [%] | residual activity [15] [%] | residual activity [16] [%] | residual activity [17] [%] | residual activity [18] [%] | % Inhibition of Control Specific Binding (Mean n=2) [19] [%] | residual activity [20] [%] | other results
CO[C@H]1CC[C@H](CNc2ccc(S(=O)(=O)NC(=O)c3ccc(N4CCN(CC5=C(c6ccc(Cl)cc6)CC(C)(C)CC5)CC4)cc3Oc3cnc4[nH]ccc4c3)cc2[N+](=O)[O-])CC1 [A-1211212] | 88 | 88 | 100 | 100 | 100 | 100 | 81 | 71 | 100 | 100 | 100 | 82 | 99 | 65 | 100 | 99 | 67 | 83 | 2.5 | 93 | residual activity [21]: 89%; residual activity [22]: 100%; residual activity [23]: 95%; % Inhibition of Control Values (Mean n=2) [24]: 6.9%; residual activity [25]: 68%; residual activity [26]: 87%; residual activity [27]: 68%; % Inhibition of Control Specific Binding (Mean n=2) [28]: 10.3%; residual activity [29]: 88%; residual activity [30]: 79%; inhibition [31]: 12.5%; residual activity [32]: 100%; % Inhibition of Control Specific Binding (Mean n=2) [33]: 1.1%; residual activity [34]: 100%; residual activity [35]: 100%; residual activity [36]: 100%; residual activity [37]: 100%; residual activity [38]: 80%; residual activity [39]: 99%
O=C(NS(=O)(=O)c1ccc(NCC2CCOCC2)c([N+](=O)[O-])c1)c1ccc(N2CCN(Cc3ccc(C(F)(F)F)cc3-c3ccc(Cl)cc3)CC2)cc1Oc1cnc2[nH]ccc2c1 [A-1210227] | 66 | 91 | 96 | 100 | 94 | 100 | 100 | 100 | 88 | 100 | 65 | 100 | 100 | 76 | 100 | 100 | 86 | 90 | -7.6 | 81 | residual activity [21]: 89%; residual activity [22]: 100%; residual activity [23]: 100%; % Inhibition of Control Values (Mean n=2) [24]: 3.7%; residual activity [25]: 100%; residual activity [26]: 97%; residual activity [27]: 91%; % Inhibition of Control Specific Binding (Mean n=2) [28]: 15.2%; residual activity [29]: 100%; residual activity [30]: 100%; inhibition [31]: 9.67%; residual activity [32]: 99%; % Inhibition of Control Specific Binding (Mean n=2) [33]: 23.2%; residual activity [34]: 100%; residual activity [35]: 99%; residual activity [36]: 100%; residual activity [37]: 100%; residual activity [38]: 82%; residual activity [39]: 100%
